The target in the experiment is 5-hydroxytryptamine receptor 1A (Rattus norvegicus) (UniProt P19327). Put plainly: Activity against 5HT1A/R in the Eurofins Panlabs screen (BI) by Radioactive Assay. As to conditions: Compound concentration 10.0 uM.

Molecules are shown by their SMILES.

Chain of 5-hydroxytryptamine receptor 1A (Rattus norvegicus) (P19327 whole entry): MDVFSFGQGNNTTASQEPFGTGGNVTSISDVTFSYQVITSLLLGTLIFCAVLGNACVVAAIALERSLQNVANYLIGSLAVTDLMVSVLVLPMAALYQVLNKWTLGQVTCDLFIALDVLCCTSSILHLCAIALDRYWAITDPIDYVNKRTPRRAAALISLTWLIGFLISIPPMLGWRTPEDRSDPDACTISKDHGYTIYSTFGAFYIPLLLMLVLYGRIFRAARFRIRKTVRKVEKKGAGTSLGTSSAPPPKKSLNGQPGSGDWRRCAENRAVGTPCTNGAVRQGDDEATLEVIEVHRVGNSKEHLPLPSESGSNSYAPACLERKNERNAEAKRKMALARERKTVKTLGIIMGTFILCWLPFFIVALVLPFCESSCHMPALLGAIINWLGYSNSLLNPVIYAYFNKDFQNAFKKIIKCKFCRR

`N=C(N)NCCC[C@@H](NC(=O)C(c1ccccc1)c1ccccc1)C(=O)NCc1ccc(CNC(N)=O)cc1`: the residual activity (usually the signal under treatment as a percentage of the control signal) was 81%.

The values are drawn from ChEMBL document CHEMBL5463723, “Data for DCP probe BIBO3304” (2023).
